This note sets out measurements from ChEMBL document CHEMBL1201862, “PubChem BioAssay data set” (2004).

The structures appear in SMILES notation.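 Briefly, cells in 96-well plates were exposed to five compound concentrations for 48 h, and endpoints were estimated by linear interpolation. Abbreviation: GI50, concentration required for 50% inhibition of growth.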 Activity calls are given as the source filed them. Cut-off read from the data, not from the text of the source: active = GI50 up to about 1.1 µM and inactive = higher. Where only a bound is given, the exact number is not on record here.

Test in all cases: NCI-60 cell line screen, 48 h
Assay [1] has as its system ACHN.
Assay [2] has as its system DU-145.
The test system of assay [3] is EKVX.
For assay [4], the system named is HCT-116.
Assay [5] concerns HOP-92.
Assay [6] concerns HT-29.
Assay [7] relates to KM12.
Assay [8] has as its system MCF7.
In assay [9] the test system is NCI-H226.
For assay [10], the system named is NCI-H460.
The test system of assay [11] is OVCAR-3.
In assay [12] the test system is OVCAR-5.
Assay [13] has as its system SF-295.
For assay [14], the system named is SF-539.
The test system of assay [15] is SK-MEL-5.
Assay [16] deals with SR.
Assay [17] has as its system TK-10.
Assay [18] concerns UACC-257.
Assay [19] deals with HCC 2998.
Assay [20] relates to SNB-75.

In the case of `NCC1OC(n2cnc3c(=O)[nH]c(N)nc32)C(O)C1O` (centres undefined), the GI50 in [1], in assay [2], in assay [3], in assay [4], in [5] and in assay [6] was > 100 µM (inactive) each time. Further, the GI50 in assay [7] is > 100 µM (inactive); in [8], 95.5 µM (inactive); in assay [9] it was > 100 µM (inactive); in assay [10], > 100 µM (inactive); in [11], > 53.3 µM (inactive); in assay [12], > 100 µM (inactive). Moreover, the GI50 was > 100 µM (inactive) in [13]; > 100 µM (inactive) in [14]; > 100 µM (inactive) in assay [15]; < 0.01 µM (active) in assay [16]; > 59.7 µM (inactive) in assay [17]; > 100 µM (inactive) in assay [18].

In the case of `COc1ccc(OC)c(/N=C/c2cc(OC)c(OC)c(OC)c2)c1`, the GI50 in assay [1] was > 94.4 µM (inactive); in assay [2] it was > 100 µM (inactive); in [3] it was > 52.6 µM (inactive); in assay [19], > 100 µM (inactive); in assay [4], > 100 µM (inactive); in assay [6], > 100 µM (inactive). The GI50 in [7] is > 80 µM (inactive); in assay [8], 62.4 µM (inactive); in assay [9], > 50.2 µM (inactive); in assay [10], > 100 µM (inactive); in assay [12], > 100 µM (inactive); in assay [13] it was > 100 µM (inactive). Also, the GI50 in assay [14] was > 100 µM (inactive); in assay [15], > 100 µM (inactive); in assay [20], > 100 µM (inactive); in assay [16], 32.5 µM (inactive); in assay [17], > 100 µM (inactive); in assay [18], > 100 µM (inactive).

`COc1ccc(C/C=C(\C)CCO)cc1`: the GI50 in assay [1], in assay [2], in assay [3], in [4], in [5] and in [6] was > 100 µM (inactive) throughout. Further, the GI50 in assay [7], in [8], in assay [10], in [11], in [12] and in assay [13] was > 100 µM (inactive) throughout. For the same compound, the GI50 in assay [14], in assay [15], in assay [20], in [16], in assay [17] and in [18] was > 100 µM (inactive) throughout.

Consider `Cc1cc(C)nc(NS(=O)(=O)c2ccc(Nc3nncc(=O)n3N)cc2)n1`, for which the GI50 in assay [1] is 33.7 µM (inactive); in assay [2] it was 34.3 µM (inactive); in assay [3] it was 23.1 µM (inactive); in [19] it was 30.5 µM (inactive); in assay [4], 28.2 µM (inactive); in [6] it was 16.9 µM (inactive). Further, the GI50 was 36.2 µM (inactive) in assay [7]; 16.7 µM (inactive) in assay [8]; 30.1 µM (inactive) in assay [10]; 16.3 µM (inactive) in [11]; 18.2 µM (inactive) in assay [12]; 31.6 µM (inactive) in assay [13]. Also, the GI50 in [14] was 31.6 µM (inactive); in assay [15] it was 17 µM (inactive); in [16], 16.8 µM (inactive); in assay [18], 19.8 µM (inactive).

With `CSc1c(CC(=O)O)n(Cc2ccccc2)c2ccccc12`, the GI50 in assay [1] was > 100 µM (inactive); in [2], > 100 µM (inactive); in [3] it was 74.5 µM (inactive); in [4], > 100 µM (inactive); in [5] it was > 100 µM (inactive); in assay [6] it was > 100 µM (inactive). In addition, the GI50 in assay [7] was > 100 µM (inactive); in assay [8] it was > 100 µM (inactive); in assay [10] it was 60.8 µM (inactive); in assay [11], > 100 µM (inactive); in assay [12] it was > 100 µM (inactive); in [13], 79.8 µM (inactive). For the same compound, the GI50 in [14], in [15], in [20], in assay [16], in [17] and in assay [18] was > 100 µM (inactive) throughout.

Consider `C[n+]1c2ccccc2c(N=[N+]=[N-])c2ccccc21`, for which the GI50 was 4.13 µM (inactive) in assay [1]; > 10 µM (inactive) in assay [2]; 8.32 µM (inactive) in assay [3]; > 10 µM (inactive) in assay [19]; 4.22 µM (inactive) in assay [4]; 3.93 µM (inactive) in assay [6]. Also, the GI50 in [7] is > 10 µM (inactive); in assay [8] it was 6.95 µM (inactive); in assay [9], 6.27 µM (inactive); in [10] it was 4.26 µM (inactive); in assay [11], > 10 µM (inactive); in assay [12], > 10 µM (inactive). The GI50 in assay [13] is > 10 µM (inactive); in assay [14], 4.83 µM (inactive); in [15], > 10 µM (inactive); in assay [16], 4.13 µM (inactive); in [17], 6.97 µM (inactive); in [18], > 10 µM (inactive).

As to `C=C(CO)[C@H]1Oc2ccc(C(C)=O)cc2[C@@H]1O`, the GI50 in assay [1], in assay [2], in [3], in assay [19], in assay [4] and in [6] was > 100 µM (inactive) each time. Moreover, the GI50 in assay [7], in [8], in assay [9], in assay [10], in assay [11] and in [12] was > 100 µM (inactive) in each case. Besides, the GI50 was > 100 µM (inactive) in [13]; > 100 µM (inactive) in assay [14]; > 100 µM (inactive) in [15]; 95.1 µM (inactive) in [20]; > 100 µM (inactive) in [16]; > 100 µM (inactive) in [17]. The GI50 in [18] was > 100 µM (inactive).

As for `CCSc1nc(-c2cccs2)nc2ccc(I)cc12`, the GI50 was > 100 µM (inactive) in assay [1]; > 100 µM (inactive) in assay [2]; 46.9 µM (inactive) in assay [3]; > 100 µM (inactive) in [19]; > 100 µM (inactive) in assay [4]; > 100 µM (inactive) in assay [6]. Besides, the GI50 in assay [7] is 72.8 µM (inactive); in assay [8], 13.1 µM (inactive); in [9], > 100 µM (inactive); in [10], > 100 µM (inactive); in assay [11], 11.2 µM (inactive); in assay [12], > 100 µM (inactive). Further, the GI50 in assay [13] was > 100 µM (inactive); in assay [14], > 100 µM (inactive); in assay [15], > 100 µM (inactive); in [20] it was > 100 µM (inactive); in assay [16], > 100 µM (inactive); in assay [17] it was 39.6 µM (inactive). Further, the GI50 in assay [18] was > 100 µM (inactive).
